# The source made the active and inactive calls.
# Key:
# Mucolipin-3 = Mucolipin-3 (Homo sapiens, UniProt Q8TDD5); assay: Dose response cell-based high-throughput screening assay for agonists of the transient receptor potential channel ML3 (TRPML3). [Related pubchem assays: 1526, 1424, 1448 ]; type: functional
# Ion channel NompC = Ion channel NompC (Danio rerio, UniProt Q7T1G6); assay: Fluorescence counterscreen assay for TRPML3 agonists: dose response cell-based high-throughput screening assay to identify agonists of the transient receptor potential channel N1 (TRPN1). [Related pubchem assays: 1526, 1424, 1448 ]; type: functional
# [1] = system: Streptococcus sp. 'group A'; assay: Streptococcus pyogenes SK(-)GAS viability under kanamycin – luminescence, BacTiterGlo, confirmation, counter-screen for streptokinase expression inhibitor project, dose response (AID 1900); type: functional, organism-based
# [2] = target: T1, Mannose-6-phosphate isomerase (Homo sapiens, UniProt P34949); assay: MPI inhibition at elevated mannose 6-phosphate – biochemical, fluorescence intensity, high mannose 6-phosphate, primary screen (AID 1220)
# T1 sequence (P34949 whole entry): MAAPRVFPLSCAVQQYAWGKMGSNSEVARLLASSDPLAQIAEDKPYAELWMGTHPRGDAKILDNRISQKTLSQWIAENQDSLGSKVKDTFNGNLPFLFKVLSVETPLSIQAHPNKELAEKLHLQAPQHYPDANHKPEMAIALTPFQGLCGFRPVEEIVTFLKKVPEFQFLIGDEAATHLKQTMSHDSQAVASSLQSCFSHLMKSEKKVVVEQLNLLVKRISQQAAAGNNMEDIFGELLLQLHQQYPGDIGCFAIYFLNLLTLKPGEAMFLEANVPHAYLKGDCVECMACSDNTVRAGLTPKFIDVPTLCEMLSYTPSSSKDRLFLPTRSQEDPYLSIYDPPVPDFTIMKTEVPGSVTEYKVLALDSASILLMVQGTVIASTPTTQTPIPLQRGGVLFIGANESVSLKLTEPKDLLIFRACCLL
# [3] = target: T2, Rac GTPase-activating protein 1 (Homo sapiens, UniProt Q9H0H5); assay: blockers of MgcRacGAP-driven Rac1 GTP hydrolysis – biochemical, ADP Hunter fluorescence, primary and confirmatory, confirmation (AID 624330); type: functional
# T2 sequence (Q9H0H5 whole entry): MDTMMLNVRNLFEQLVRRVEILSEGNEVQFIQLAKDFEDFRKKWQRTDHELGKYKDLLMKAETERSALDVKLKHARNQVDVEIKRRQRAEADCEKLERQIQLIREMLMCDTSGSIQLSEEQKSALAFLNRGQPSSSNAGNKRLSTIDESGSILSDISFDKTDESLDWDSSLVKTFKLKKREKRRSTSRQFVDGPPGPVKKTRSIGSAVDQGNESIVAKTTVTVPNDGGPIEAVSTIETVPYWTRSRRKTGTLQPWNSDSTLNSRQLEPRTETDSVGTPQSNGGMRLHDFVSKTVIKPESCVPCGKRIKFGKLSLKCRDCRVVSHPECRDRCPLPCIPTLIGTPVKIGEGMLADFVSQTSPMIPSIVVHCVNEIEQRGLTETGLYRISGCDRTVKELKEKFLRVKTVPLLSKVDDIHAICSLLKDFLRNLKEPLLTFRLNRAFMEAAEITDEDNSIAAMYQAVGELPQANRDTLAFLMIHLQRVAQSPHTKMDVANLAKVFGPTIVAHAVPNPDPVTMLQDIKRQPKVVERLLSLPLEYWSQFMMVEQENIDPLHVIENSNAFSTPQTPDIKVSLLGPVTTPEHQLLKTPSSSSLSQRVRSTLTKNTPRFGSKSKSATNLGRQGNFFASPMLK
# Streptokinase A = target: T3, Streptokinase A (Streptococcus pyogenes serotype M1, UniProt P10520); assay: viability-normalized secreted streptokinase activity reduction – plasminogen activation absorbance, OD405, dose response (AID 1914); type: functional, Streptococcus pyogenes M1 GAS;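 note: secreted streptokinase activity via plasminogen activation per viability signal from cell pellet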
# T3 sequence (P10520 whole entry): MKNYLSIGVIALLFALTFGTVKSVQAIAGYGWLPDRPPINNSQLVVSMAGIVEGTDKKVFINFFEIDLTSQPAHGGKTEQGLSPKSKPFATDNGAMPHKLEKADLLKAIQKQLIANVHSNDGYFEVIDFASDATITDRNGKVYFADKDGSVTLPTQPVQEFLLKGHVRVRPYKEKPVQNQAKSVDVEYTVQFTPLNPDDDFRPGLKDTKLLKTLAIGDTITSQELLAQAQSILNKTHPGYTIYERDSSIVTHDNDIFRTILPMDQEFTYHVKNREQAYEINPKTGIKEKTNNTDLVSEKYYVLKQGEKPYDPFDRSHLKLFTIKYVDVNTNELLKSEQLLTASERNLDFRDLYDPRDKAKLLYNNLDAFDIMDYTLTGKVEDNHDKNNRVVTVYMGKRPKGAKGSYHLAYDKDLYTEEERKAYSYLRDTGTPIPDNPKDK
# Streptococcus = assay: GAS UMAA2166 growth inhibition – luminescence, BacTiterGlo, counter-screen for streptokinase expression inhibitor project, dose response (AID 1915); type: functional, organism-based;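 note: potency for reduction of bacterial viability or growth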
# Vero [4] = assay: viability of Vero cells under compound – cytotoxicity control for flavivirus capping enzyme inhibitors (AID 588742); type: functional; details: Chlorocebus sabaeus
# Cytochrome P450 3A4 = Cytochrome P450 3A4 (Homo sapiens, UniProt P08684); details: Potency;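 note: confirmatory qHTS run detecting inhibitors and substrates of CYP3A4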
# Cytochrome P450 2C9 = Cytochrome P450 2C9 (Homo sapiens, UniProt P11712); details: Potency
# [5] = M. tuberculosis H37Rv growth inhibitors, H37Rv strain (AID 1626); type: functional
# Aminopeptidase N = target: T4, Aminopeptidase N (Plasmodium falciparum FcB1/Columbia, UniProt O96935); assay: malaria alanyl aminopeptidase activity blockers – biochemical, fluorogenic H-Leu-NHMec substrate, 1536-well (AID 1445); design: species or system Plasmodium falciparum 3D7, 3D7
# T4 sequence (O96935 whole entry): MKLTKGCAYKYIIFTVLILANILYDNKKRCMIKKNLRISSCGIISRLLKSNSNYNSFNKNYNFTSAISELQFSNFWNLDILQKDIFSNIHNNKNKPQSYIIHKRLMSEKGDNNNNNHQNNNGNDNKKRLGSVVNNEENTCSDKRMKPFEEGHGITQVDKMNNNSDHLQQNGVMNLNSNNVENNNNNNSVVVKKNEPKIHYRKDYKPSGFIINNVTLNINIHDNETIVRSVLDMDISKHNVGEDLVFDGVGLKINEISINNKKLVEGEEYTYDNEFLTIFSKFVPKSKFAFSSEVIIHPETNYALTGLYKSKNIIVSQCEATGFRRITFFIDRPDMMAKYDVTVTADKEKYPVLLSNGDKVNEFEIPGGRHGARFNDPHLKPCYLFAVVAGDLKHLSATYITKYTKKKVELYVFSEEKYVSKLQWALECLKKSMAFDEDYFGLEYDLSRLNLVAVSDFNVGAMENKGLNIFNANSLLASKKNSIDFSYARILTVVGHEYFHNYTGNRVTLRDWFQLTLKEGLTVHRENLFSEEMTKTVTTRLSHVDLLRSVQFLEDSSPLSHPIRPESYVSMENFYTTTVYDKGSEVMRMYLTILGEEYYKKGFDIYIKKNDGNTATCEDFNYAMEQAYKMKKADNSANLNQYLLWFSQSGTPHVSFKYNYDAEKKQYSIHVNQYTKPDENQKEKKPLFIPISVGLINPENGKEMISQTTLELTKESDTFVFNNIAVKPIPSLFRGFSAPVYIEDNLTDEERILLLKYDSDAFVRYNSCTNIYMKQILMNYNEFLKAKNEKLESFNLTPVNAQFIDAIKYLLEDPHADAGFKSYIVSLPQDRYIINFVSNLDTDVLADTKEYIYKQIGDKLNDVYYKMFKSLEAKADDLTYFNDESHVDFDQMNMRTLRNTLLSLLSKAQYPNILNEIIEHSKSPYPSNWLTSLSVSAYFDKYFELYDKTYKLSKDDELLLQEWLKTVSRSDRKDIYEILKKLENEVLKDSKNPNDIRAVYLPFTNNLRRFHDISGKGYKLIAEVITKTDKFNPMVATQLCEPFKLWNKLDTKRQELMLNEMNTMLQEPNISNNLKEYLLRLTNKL
# [6] = target: Lysosomal acid glucosylceramidase (Homo sapiens, UniProt P04062); assay: Dose response cell-based high throughput screening assay to identify enhancers of beta-glucosidase activity. [Related pubchem assays: 784 ]; type: functional
# [7] = target: T1, Mannose-6-phosphate isomerase; assay: MPI enzyme activity inhibition – biochemical, fluorescence intensity, coupled assay, primary screen (AID 1209)
# Nonstructural protein 1 = Nonstructural protein 1 (Influenza A virus, UniProt Q194T2); type: functional, Influenza A virus (A/California/07/2009(H1N1))
# [8] = target: T5, Short transient receptor potential channel 4 (Mus musculus, UniProt Q9QUQ5); assay: calcium entry via TRPC4 opening agents – cell-based, HEK293 TRPC4/mu-opioid, Fluo-4 calcium, dose response (AID 434937); type: functional
# T5 sequence (Q9QUQ5 whole entry): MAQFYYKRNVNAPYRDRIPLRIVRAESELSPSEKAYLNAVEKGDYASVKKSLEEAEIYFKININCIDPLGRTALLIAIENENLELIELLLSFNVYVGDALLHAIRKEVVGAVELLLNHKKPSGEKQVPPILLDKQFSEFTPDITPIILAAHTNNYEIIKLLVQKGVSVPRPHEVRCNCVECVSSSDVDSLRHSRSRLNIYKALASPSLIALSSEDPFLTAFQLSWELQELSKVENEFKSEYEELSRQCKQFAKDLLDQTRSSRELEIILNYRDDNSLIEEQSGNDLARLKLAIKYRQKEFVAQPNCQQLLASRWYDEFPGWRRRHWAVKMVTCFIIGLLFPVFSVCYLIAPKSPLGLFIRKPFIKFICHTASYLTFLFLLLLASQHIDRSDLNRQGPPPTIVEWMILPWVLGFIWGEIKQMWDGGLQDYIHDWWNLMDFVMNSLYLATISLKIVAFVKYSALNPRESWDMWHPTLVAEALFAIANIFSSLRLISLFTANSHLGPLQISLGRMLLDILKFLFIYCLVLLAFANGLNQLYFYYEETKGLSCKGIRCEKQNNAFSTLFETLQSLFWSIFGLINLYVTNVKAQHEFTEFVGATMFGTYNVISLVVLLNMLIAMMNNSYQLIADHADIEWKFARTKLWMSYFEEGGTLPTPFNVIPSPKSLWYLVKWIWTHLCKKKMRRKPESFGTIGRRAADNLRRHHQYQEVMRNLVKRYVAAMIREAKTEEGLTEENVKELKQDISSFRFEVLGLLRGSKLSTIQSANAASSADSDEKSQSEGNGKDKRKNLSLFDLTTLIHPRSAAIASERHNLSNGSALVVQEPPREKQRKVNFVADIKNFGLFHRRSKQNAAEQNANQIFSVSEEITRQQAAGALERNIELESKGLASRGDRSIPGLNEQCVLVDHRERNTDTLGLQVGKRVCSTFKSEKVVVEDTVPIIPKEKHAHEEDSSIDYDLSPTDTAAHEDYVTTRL
# Vero [9] = assay: cells; type: functional; details: Chlorocebus sabaeus
# [10] = NIH3T3 cell viability loss – ATP luminescence, mouse fibroblasts, counter-screen, dose response (AID 2010); type: functional, cell-based;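 note: cells exposed to compound for about 90 hours before reading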
# [11] = Trypanosoma cruzi growth suppression in host cells – NIH3T3 host cells, beta-gal luminescence, confirmation (AID 2044); type: functional, cell-based;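 note: intracellular parasites grown in NIH/3T3 mouse fibroblasts as host cells; luminescent beta-galactosidase reporter signal from transgenic T. cruzi replicating inside host cells; inhibitors lower the luminescence signal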
# [12] = A Cell Based Secondary Assay To Explore Cytotoxicity of Compounds that Sensitize Mycobacterium Tuberculosis to Beta-Lactam Antibiotics.; type: functional
# Cytochrome P450 2C9, sequence (P11712 whole entry): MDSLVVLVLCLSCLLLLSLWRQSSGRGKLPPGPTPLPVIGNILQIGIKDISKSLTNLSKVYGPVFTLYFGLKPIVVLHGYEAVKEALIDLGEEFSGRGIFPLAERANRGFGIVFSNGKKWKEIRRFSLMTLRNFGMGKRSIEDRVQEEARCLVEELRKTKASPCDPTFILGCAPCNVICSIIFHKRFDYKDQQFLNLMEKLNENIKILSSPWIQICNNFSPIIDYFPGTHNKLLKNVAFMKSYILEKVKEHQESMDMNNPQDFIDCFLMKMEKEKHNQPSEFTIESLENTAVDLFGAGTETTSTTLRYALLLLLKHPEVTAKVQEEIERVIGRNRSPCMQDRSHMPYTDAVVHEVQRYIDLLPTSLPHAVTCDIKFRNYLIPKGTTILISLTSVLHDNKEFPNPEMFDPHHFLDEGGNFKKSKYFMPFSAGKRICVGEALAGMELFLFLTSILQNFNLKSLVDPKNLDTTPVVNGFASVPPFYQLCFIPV
# Lysosomal acid glucosylceramidase, sequence (P04062 whole entry): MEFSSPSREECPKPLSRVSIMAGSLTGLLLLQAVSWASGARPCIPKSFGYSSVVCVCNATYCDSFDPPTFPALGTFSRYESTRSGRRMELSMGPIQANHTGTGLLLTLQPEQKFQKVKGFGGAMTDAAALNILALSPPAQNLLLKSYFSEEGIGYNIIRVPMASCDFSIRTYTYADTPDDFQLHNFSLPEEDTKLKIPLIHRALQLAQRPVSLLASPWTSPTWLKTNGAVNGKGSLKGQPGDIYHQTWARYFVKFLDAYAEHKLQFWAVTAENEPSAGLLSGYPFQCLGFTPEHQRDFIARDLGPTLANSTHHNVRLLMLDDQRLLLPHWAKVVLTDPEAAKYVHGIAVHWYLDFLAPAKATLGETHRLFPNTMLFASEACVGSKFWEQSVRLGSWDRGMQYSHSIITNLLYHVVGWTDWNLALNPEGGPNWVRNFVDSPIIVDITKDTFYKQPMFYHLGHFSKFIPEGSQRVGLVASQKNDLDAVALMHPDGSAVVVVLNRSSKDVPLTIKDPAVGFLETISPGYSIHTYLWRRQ
# Ion channel NompC, sequence (Q7T1G6 whole entry): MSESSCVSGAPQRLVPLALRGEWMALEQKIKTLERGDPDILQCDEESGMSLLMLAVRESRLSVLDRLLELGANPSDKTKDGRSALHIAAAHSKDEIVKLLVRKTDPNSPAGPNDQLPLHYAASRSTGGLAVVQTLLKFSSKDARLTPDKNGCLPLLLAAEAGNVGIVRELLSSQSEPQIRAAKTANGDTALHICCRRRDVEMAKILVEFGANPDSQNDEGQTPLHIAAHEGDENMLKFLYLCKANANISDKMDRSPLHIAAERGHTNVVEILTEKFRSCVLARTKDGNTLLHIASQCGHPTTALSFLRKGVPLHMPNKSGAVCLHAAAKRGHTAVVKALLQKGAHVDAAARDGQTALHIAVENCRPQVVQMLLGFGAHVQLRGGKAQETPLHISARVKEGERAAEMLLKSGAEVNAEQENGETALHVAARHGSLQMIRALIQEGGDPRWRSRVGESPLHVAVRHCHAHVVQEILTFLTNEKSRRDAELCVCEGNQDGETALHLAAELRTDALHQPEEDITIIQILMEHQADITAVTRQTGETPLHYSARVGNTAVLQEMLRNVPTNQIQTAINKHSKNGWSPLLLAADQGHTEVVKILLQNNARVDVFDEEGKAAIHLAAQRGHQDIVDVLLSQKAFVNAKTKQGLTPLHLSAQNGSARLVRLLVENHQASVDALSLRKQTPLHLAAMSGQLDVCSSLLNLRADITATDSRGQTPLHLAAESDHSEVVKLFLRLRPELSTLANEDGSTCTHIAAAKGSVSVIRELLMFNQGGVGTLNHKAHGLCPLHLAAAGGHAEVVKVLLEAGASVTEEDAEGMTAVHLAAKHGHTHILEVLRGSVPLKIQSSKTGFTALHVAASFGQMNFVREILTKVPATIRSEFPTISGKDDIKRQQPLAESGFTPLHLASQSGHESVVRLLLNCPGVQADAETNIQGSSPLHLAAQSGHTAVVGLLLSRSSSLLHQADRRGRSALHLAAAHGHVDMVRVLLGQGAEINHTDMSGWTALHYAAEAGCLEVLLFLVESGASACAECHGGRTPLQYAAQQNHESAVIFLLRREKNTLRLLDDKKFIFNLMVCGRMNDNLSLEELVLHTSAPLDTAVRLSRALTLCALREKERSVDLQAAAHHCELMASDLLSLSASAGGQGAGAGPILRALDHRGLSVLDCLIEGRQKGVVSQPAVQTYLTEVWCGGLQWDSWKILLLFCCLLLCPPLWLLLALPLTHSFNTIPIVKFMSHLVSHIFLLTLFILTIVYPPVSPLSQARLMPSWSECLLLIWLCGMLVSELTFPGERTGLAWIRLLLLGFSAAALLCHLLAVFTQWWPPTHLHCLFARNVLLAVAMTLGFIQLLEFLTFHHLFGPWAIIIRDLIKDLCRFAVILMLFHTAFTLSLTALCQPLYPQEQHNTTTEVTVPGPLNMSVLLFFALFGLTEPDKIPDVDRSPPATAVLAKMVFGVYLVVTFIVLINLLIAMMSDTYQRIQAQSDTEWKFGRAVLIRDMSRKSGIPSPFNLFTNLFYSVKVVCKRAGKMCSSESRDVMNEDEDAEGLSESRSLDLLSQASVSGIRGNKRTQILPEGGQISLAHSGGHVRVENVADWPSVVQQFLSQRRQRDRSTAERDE
# Mucolipin-3, sequence (Q8TDD5 whole entry): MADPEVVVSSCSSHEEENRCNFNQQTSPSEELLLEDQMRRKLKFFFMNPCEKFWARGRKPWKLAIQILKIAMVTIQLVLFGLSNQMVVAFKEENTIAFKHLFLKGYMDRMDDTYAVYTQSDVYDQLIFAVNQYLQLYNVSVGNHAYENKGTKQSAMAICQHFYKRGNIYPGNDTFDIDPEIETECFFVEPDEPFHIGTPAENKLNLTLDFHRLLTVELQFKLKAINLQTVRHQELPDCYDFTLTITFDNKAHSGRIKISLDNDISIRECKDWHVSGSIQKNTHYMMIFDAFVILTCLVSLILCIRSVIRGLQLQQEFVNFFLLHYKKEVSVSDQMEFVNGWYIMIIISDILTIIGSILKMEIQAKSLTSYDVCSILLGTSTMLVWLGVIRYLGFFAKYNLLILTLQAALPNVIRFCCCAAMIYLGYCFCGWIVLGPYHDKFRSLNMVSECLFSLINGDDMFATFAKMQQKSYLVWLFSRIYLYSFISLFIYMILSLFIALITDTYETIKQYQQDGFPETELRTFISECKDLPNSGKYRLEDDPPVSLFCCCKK
# Nonstructural protein 1, sequence (Q194T2 whole entry): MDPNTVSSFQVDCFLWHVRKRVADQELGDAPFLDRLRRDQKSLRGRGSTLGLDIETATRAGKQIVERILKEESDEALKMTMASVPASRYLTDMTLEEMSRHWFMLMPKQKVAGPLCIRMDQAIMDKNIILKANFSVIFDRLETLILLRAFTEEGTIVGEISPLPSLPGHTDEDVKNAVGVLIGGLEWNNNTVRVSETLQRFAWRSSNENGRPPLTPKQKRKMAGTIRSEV
# Cytochrome P450 3A4, sequence (P08684 whole entry): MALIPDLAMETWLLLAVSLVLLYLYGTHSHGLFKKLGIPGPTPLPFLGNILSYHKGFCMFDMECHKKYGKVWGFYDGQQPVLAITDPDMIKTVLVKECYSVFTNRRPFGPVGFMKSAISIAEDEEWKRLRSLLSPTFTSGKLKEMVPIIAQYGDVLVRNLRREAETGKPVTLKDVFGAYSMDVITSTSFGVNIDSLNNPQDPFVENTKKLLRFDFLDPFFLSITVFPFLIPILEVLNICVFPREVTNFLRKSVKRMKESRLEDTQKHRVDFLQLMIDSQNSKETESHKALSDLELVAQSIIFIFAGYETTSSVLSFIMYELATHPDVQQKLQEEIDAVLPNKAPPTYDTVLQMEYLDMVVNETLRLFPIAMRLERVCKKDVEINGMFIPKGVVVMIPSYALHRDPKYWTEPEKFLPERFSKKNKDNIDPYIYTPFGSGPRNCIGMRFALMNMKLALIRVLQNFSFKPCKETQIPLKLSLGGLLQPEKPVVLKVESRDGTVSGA
smiles,measurement,setting,value
CN(C)c1ncc(S(=O)(=O)c2ccccc2)c(-c2ccc(Cl)cc2Cl)n1,EC50,Mucolipin-3,1.87 µM (active)
same,EC50,Ion channel NompC,> 29.9 µM (not active)
Oc1c(Cl)cc(Cl)c2c1NCCC2,EC50,[1],5.36 µM (active)
same,IC50,[2],25.3 µM (active)
same,IC50,[3],31.4 µM (active)
same,EC50,Streptokinase A,> 150 µM (not active)
same,EC50,Streptococcus,85.5 µM (active)
same,CC50,Vero [4],34.5 µM (active)
C/C=C/OC(=O)NC(c1ccccc1)[C@]1(C(C)=O)CCCC1=O (stereo partly drawn),AC50,Cytochrome P450 3A4,0.126 µM (inconclusive)
same,AC50,Cytochrome P450 2C9,3.98 µM (inconclusive)
N#C/C(=C(/O)CSc1nnc(Cc2cccs2)n1C1CCCCC1)c1nc2ccccc2[nH]1,IC50,[5],> 100 µM (active)
same,IC50,Aminopeptidase N,78.9 µM (active)
Cc1ccccc1NC(=O)Nc1cccs1,EC50,[6],> 50 µM (not active)
NC(=S)N/N=C/c1cccc(O)c1O,IC50,[3],31.5 µM (active)
same,IC50,[7],11 µM (active)
same,IC50,Nonstructural protein 1,4.5 µM (active)
CCOC(=O)C1CCN(C(=O)c2ccc(NC(=O)C3CCCO3)cc2)CC1 (stereo not drawn),EC50,[6],> 50 µM (not active)
COc1ccc(C(=O)NC(=S)NNC(=O)c2c(-c3ccccc3)noc2C)cc1OC,EC50,[1],0.62 µM (active)
same,EC50,[8],6.68 µM (active)
same,CC50,Vero [9],17.2 µM (active)
same,EC50,Streptococcus,7.7 µM (active)
same,EC50,Mucolipin-3,7.51 µM (active)
same,EC50,Ion channel NompC,7.42 µM (active)
CCOc1ccc(NC(=O)CCN2CCN(c3ccccc3)CC2)cc1,IC50,[5],> 100 µM (active)
CC(C)[C@H]1C(=O)N2CCC[C@@H]2[C@]2(O)O[C@@](NC(=O)[C@H]3C=C4c5cccc6[nH]cc(c56)C[C@H]4N(C)C3)(C(C)C)C(=O)N12,AC50,Cytochrome P450 2C9,25.1 µM (inconclusive)
COc1ccc2c(c1)c(CC(=O)Nc1ccc(C)cc1)c(C)n2C(=O)c1ccc(Cl)cc1,EC50,[10],> 60 µM (not active)
same,EC50,[11],1.04 µM (active)
same,CC50,[12],> 40 µM (active)

# Reference: ChEMBL document CHEMBL1201862, “PubChem BioAssay data set” (2004)
